Results reported in a melting point compilation (Tetko et al.; mined from patent text by program, amines drawn as free bases though some values may be those of a salt).

Row | SMILES | melting point
1 | CCc1ccc2nc(Cl)nc(Cl)c2c1 | 80 to 83 °C
2 | C[C@@H]1NCC[C@@H]1C(C)(C)O | 120 to 122 °C
3 | Cn1cc(CO)c(=O)c2ccc(Br)cc21 | > 300 °C
4 | COC1([N+](=O)[O-])C=C([N+](=O)[O-])C=CC1O (stereo not drawn) | 68 to 70 °C
5 | CCc1c(OC)nc(OC)nc1C(C#N)c1cc(Cl)cc(Cl)c1 (stereo not drawn) | 121 to 122 °C
6 | Cn1c(=O)c(-c2ccc(Cl)cc2Cl)cc2c3cc(-c4nc(NS(C)(=O)=O)no4)ccc3n(C)c21 | 263 to 266 °C
7 | c1ccc2c(c1)C[C@H]1CSC(=Nc3nccs3)N1C2 | 158 °C
8 | O=C(Oc1ccccc1)N1CCC2(CC1)SC(c1cccc(F)c1)c1ccccc12 (stereo not drawn) | 134 to 142 °C
9 | NC(=S)c1ncn2c1[C@@H]1CCN1C(=O)c1c(Cl)cccc1-2 | 250 to 253 °C
10 | CCOc1ccc(-c2ccc3c(c2)C=C(C(=O)Nc2ccc(CN(C)C4CCOCC4)cc2)CCS3(=O)=O)cc1Cl | 201 to 204 °C
11 | Nc1c(Cl)c(Br)cc2[nH]c(=O)c(=O)[nH]c12 | > 350 °C
12 | O=C1c2cc(NCCO)ccc2OC12CC2 | 74 to 75 °C
13 | CC1(C)CSc2c(-c3ccccc3)c(-c3ccc(Cl)cc3)cn2C1 | 147 to 148 °C
14 | COC(=O)Nc1nc2cc(C(C3CC3)n3ccnc3)ccc2[nH]1 (stereo not drawn) | 218 °C
15 | Cc1nc(-c2cccc3nc(N[C@@H]4CCc5ccccc54)ccc23)no1 | 105 °C
16 | CC(C)OC(CC#N)=NC#N | 66.5 °C
17 | Cc1cc(-c2nc3cccnn3c2-c2ccnc(NC(=O)CC(F)(F)F)c2)ccc1F | 220 to 221 °C
18 | COc1ccc2cc(C3SCCCS3)ccc2c1 | 190 °C
19 | CC(=O)N(C(C)=O)c1c(C#N)cnn1-c1c(F)c(F)c(C)c(F)c1F | 132 to 133 °C
20 | COc1cccc(-c2cn3c(ccc4ccccc43)n2)c1 | 129 to 131 °C

Row | SMILES | melting point
21 | Nc1cc(C(F)(F)F)cc(N)c1Cl | 96 °C
22 | CCCC1CCCCc2c1oc(=O)c(C(c1ccccc1)C1CC1)c2O (stereo not drawn) | 60 to 65 °C
23 | CCC1(C)Cc2ccc(C(C)C(=O)O)cc2C1 (stereo not drawn) | 165 to 167 °C
24 | COc1cc(CCN)ccc1O | 156 to 158 °C
25 | O=c1[nH]c2ccc(C3=NOC(CN4CCC(Cc5ccc(F)cc5)C(O)C4)C3)cc2o1 (stereo not drawn) | 224 to 233 °C
26 | CSC(=NC#N)NCCSCc1ccc(Nc2ccccc2)nc1 | 180 to 182 °C
27 | CCN1c2ncc(CCc3cnc4ccccc4c3)cc2C(=O)N(C)c2ccc(F)nc21 | 154 to 156 °C
28 | Cc1ccc2c(c1)NCc1ccccc1O2 | 84 to 86 °C
29 | N#CC1CN1C(=O)c1ccc(Cl)nn1 (stereo not drawn) | 109 to 115 °C
30 | Cc1ccc(-c2ccc(OC3SCC(O)C(O)C3O)cn2)o1 (stereo not drawn) | 168 °C
31 | Cc1ccc(C(=O)C#CCO)cc1 | 74 °C
32 | O=C1NC(=S)SC1=Cc1ccccc1C(=O)O | 276 to 278 °C
33 | CSC(=NC#N)NCCN1CCC(Nc2nc3cccnc3n2Cc2ccc(F)cc2)CC1 | 172 °C
34 | Cc1c(-c2ccccc2)n(-c2cccc(S(C)(=O)=O)c2)c(-c2ccccc2)cc1=O | 246 to 248 °C
35 | N#CC1=C(c2ccccc2)Nc2n[nH]cc2C1c1cccc(Cl)c1Cl (stereo not drawn) | 162 °C
36 | CONS(=O)(=O)c1c(C)nn(C)c1Cl | 120 to 122 °C
37 | O=C1c2ccccc2C(=O)N1CCc1c[nH]c2ccc(CNS(=O)(=O)c3ccccc3)cc12 | 225 to 226 °C
38 | Cc1cc2c(=O)c(N3CCC(O)(c4ccc(F)cc4)CC3)coc2cc1OCc1ccccc1 | 245 to 246 °C
39 | O=C(OC1CCCCC1)c1ncn2c1[C@@H]1CCCN1C(=O)c1c-2cccc1C(F)(F)F | 193 to 194 °C
40 | Fc1ccc([C@H]2CC[C@H](N3CCN(Cc4ccccc4)CC3)CC2)cc1 | 106 °C

Row | SMILES | melting point
41 | CC(=O)Nc1ccc(C(=O)N2CCN(CCc3ccc(Cl)cc3)CC2)cc1 | 147 to 149 °C
42 | O=c1oc(-c2c(F)cccc2F)nn1-c1ccccc1Br | 111 to 114 °C
43 | OCC1Cc2c(c(Cl)cc3c(-c4ccccc4F)noc23)O1 (stereo not drawn) | 136 to 139 °C
44 | COc1ccc(-c2[nH]nc3c2C(=O)c2c(NC(=O)N[C@@H]4CCCC[C@@H]4N)cccc2-3)cc1 (relative stereo) | > 300 °C
45 | CCNC(=S)N1CCN([C@H](C)[C@](O)(Cn2cncn2)c2ccc(F)cc2F)CC1 | 96 to 98 °C
46 | O=C(O)c1cc(O)c(I)c(O)c1 | 245 to 248 °C
47 | C#CCn1c(=O)c(C(F)(F)F)cc2cc(F)c(-n3c(=O)cc(C(F)(F)F)n(C)c3=O)cc21 | 248 to 250 °C
48 | C[C@@H](c1nc(-c2ccc(C#N)cc2)cs1)[C@](O)(Cn1cncn1)c1ccc(F)cc1F | 164 to 166 °C
49 | c1cncc(OCCCn2cc(-c3cc4nccnc4[nH]3)c3ccccc32)c1 | 208 to 209 °C
50 | CC(C#N)(C(O)c1ccc(Cl)cc1Cl)n1cncn1 (stereo not drawn) | 164 to 168 °C
51 | CNC(=S)c1cnn(-c2cccc(Cl)c2)c1Cl | 128 to 130 °C
52 | Cc1ccc2[nH]c(CO)cc2c1 | 94 to 95 °C
53 | CCOc1ccc(S(=O)(=O)N2CCN(C)CC2)cc1-c1nc2cccnc2c(=O)[nH]1 | 212 to 215 °C
54 | CC1CC(N)=NN1c1nc2c(s1)CCCC2 (stereo not drawn) | 247 to 249 °C
55 | COc1ccc(C=CC(=O)CC(=O)C=Cc2ccc(OC)c(OC)c2)cc1OC | 129 to 131 °C
56 | CCCCC[C@H]1CO[C@H](c2ccc(C(=O)O)cc2)OC1 | 210 to 211 °C
57 | CCCCCCCCCCCCn1nnc(Nc2ccccc2)n1 | 58 to 61 °C
58 | CC1(C)CC(=O)c2c(O)cc(C=Cc3ccccc3)cc2O1 | 116 °C

Second part, the compound after the results:

Row | melting point | SMILES
59 | 104 to 106 °C | CC1COc2cc(NC(=O)OCc3ccccc3)ccc2N1C(=O)OCc1ccccc1 (stereo not drawn)
60 | 85 to 88 °C | CN(CCCO)C(=O)c1c2ccc(Cl)cc2c(-c2ccccc2)n1C
61 | 140 to 150 °C | CC(=O)N(N=Cc1c(Cl)cccc1Cl)c1nncn1N(C(C)=O)C(C)=O
62 | 190 to 194 °C | COc1ccc(C(=O)Nc2ccc(C)cc2)cc1N
63 | 114 to 116 °C | COc1ccc(S(C)=O)cc1C(=O)O (stereo not drawn)
64 | 204 to 206 °C | COC(=O)c1ccc(C(=O)NS(=O)(=O)c2ccc(CCNC(=O)CCC(C)C)cc2)cn1
65 | 88 to 89 °C | CC(C)OCCNS(=O)(=O)NC(=O)OCc1ccccc1
66 | 156 to 157 °C | O=C(N[C@@H]1CN(C2CCCCC2)C[C@H]1O)c1ccc([N+](=O)[O-])cc1 (relative stereo)
67 | 190 to 191 °C | Cc1ccc(N(C)S(=O)(=O)c2cccs2)c2[nH]c(-c3ncc(CN4CCC(O)C4)s3)cc12 (stereo not drawn)
68 | 163 to 165 °C | COC(=O)C1Cc2c([nH]c3ccccc23)C(c2ccc(Cl)c(Cl)c2)N1C(=O)CCl (stereo not drawn)
69 | 132 °C | COC(=O)c1ccc(Cc2cc3cc(C(F)(F)F)ccc3n2S(=O)(=O)c2ccc(C(C)C)cc2)cc1F
70 | > 300 °C | CC(=O)OCCCCC#Cc1ccc2c3ccc4c5c(ccc(c6cccc1c62)c53)C(=O)N(c1c(C(C)C)cccc1C(C)C)C4=O
71 | 161 to 164 °C | Cc1cc(=O)oc2cc(OS(N)(=O)=O)ccc12
72 | 140 to 142 °C | COc1ccc(CN2C(=O)[C@@H](Cl)[C@H]2[C@@H]2COC(C)(C)O2)c(OC)c1
73 | 134 to 141 °C | CCc1c(NC(=O)c2cc(S(C)(=O)=O)ccc2OCC(C)C)c(C(N)=O)nn1C1CCN(C(=O)OC(C)(C)C)CC1
74 | 61 to 62 °C | CC(=O)Oc1cc(OC(C)=O)cc(C(=O)CBr)c1
75 | 184 °C | O=C(c1cccnc1)c1ccc([N+](=O)[O-])c(CO)c1
76 | 260 to 262 °C | CC(C)(O)Cn1c(CO)nc2c(N)nc3cc(OCc4cscn4)ccc3c21
77 | 61 to 62 °C | CCOC(=O)CCc1ccc(CCNS(=O)(=O)c2ccc(Cl)cc2)cc1
78 | > 300 °C | CCn1c(=O)c(=O)[nH]c2ccc([N+](=O)[O-])cc21

Row | melting point | SMILES
79 | 159 to 161 °C | COc1ccc(/C(=C\C=C\C(=O)O)c2ccccc2OC)cc1
80 | 108 °C | CCc1cccc(CC(=O)O)c1OCCCn1cc(C(=O)NCc2ccc(C(F)(F)F)cc2)c(OC(C)C)n1
81 | 205 to 209 °C | COc1cc(C[C@H]2NC(=O)CN(Cc3ccccc3)C2=O)ccc1C
82 | 103 to 108 °C | CC(=O)N1CCCC1CN1C(=O)C2(COc3cc4c(cc32)CCO4)c2ccccc21 (stereo not drawn)
83 | 133 to 135 °C | CCS(=O)(=O)N(C)[C@@H]1c2cc([N+](=O)[O-])ccc2OCC[C@H]1O (relative stereo)
84 | 110 °C | CCOC(=O)CCCC(=O)CNC(=O)c1csc(NC(=O)NCc2ccccn2)n1
85 | 141 to 143 °C | COC(=O)C(=C/c1cc(OC)c(OC)c(OC)c1)/C(C(N)=O)=C(/C)c1ccccc1
86 | 183 °C | C=NOC(c1ccc(C(=O)O)cc1)c1c(C)nn(C)c1Oc1ccccc1 (stereo not drawn)
87 | 212 to 215 °C | CCC(C(=O)C(C)C(O)C(C)CCc1c(N=Nc2ccccc2)cc(C)c(O)c1C(=O)O)C1OC(CC)(C2CCC(O)(CC)C(C)O2)CC1C (stereo not drawn)
88 | 192 to 193 °C | COc1cc2c(cc1OCc1ccccc1)CCCNC2=O
89 | 191 to 193 °C | COc1ccc([C@@H]2Cc3c(Cl)cccc3NC(=O)[C@@H]2O)cc1
90 | 73 to 75 °C | CC1CN(c2ccc([N+](=O)[O-])cc2Cl)C(=O)O1 (stereo not drawn)
91 | 136 °C | COC(=O)C(Cl)Cc1ccc2ccc(Oc3c(Cl)cc(C(F)(F)F)cc3Cl)cc2c1 (stereo not drawn)
92 | 113 to 114 °C | COCN1C(C)=C(C(=O)OC)[C@H](c2cccc([N+](=O)[O-])c2)C(C(=O)OCOC(=O)C(C)(C)C)=C1C
93 | 250 to 252 °C | CCOc1ccc2[nH]c3c(c2c1)C[C@@]1(C)C(=O)N(CCBr)C(=O)N1[C@@H]3c1cccc(O)c1 (racemic)
94 | 92 to 95 °C | CC(C)(C)OC(=O)C1Cc2ccccc2CN1C(=O)CBr (stereo not drawn)
95 | 49 to 52 °C | CCOC(=O)C1=C(C)NC(C)=C(C(=O)OCC)C1c1ccccc1/C=C/C(=O)OC(CC(C)C)CC(C)C
96 | 252 to 256 °C | Cn1nc(-c2ccc(Cl)c(Cl)c2)cc1C(=O)O
97 | 164 to 169 °C | CC(C)c1cccc(C(C)C)c1NC(=O)Nc1cccc2ccc(Oc3ccc4nc(COc5ccc(CC6SC(=O)NC6=O)cc5)n(C)c4c3)cc12 (stereo not drawn)
98 | 149 to 150 °C | Cc1nc(-n2cnn(CCOC(=O)NCc3ccc(F)cc3)c2=O)sc1C(=O)NCc1cccnc1
